From patent US20040141912A1, “Method for targeting chemical compounds to cells and pharmaceutical compositions used therein” (priority 2001, published 2004)
“Also recorded” adds a separate entry of the source.

What was measured:
HeLa S3 cells = assay: Flow-cytometric (FACS) analysis of DDL binding to apoptotic cells in aged HeLa culture; format: cell-based; conditions: HeLa aged 96 h
Procedure: FIG. 2: HeLa cells were allowed to age by incubating the culture for 96 hours without exchange of the growth medium. As a result, a marked percentage of the cells became apoptotic. Cells were then incubated with DDL (1 μM, 2 minutes) under three different conditions: PLS-activation; PLS-inhibition; and reactivation of inhibited-PLS as defined above. Shown is quantitative analysis of fluorescence intensity (geomean) values.
For this purpose, cultured, aged HeLa S3 cells (ATCC CCL-2.2) were grown in Dulbecco's modified Eagle's medium (DMEM), containing CaCl (1.8 mM) and supplemented with 2 mM of L-glutamine; 100 units/ml of penicillin; 100 μg/ml of streptomycin; 12.5 units/ml of nystatin and 10% of fetal calf serum (FCS). Cells were seeded at a density of 5×10^6 cells/plate on a […] culture plates in a volume of 10 ml, and were allowed to age in culture for 96 hours without exchange of the growing medium. Such a procedure culminates in a large percentage of apoptotic cells within the culture. Culture (1×10^7/ml) was then incubated with DDL at a final concentration of 5 μM in HBS for 5 minutes, and taken immediately for FACS analysis for detection of bound DDL, using Becton-Dickinson cell sorter and CellQuest software. Excitation was at 360 nm and emission was measured at 530 nm.
Three different conditions were examined (FIG. 2): PLS-activation by the apoptotic process, PLS-inhibition; and reactivation of inhibited-PLS.

Jurkat cells = assay: Fluorescent microscopy of DDL uptake by Jurkat cells induced to undergo apoptosis by anti-Fas antibody; format: cell-based, human
Procedure: FIG. 1: Jurkat cells were treated with anti-Fas antibody (0.1 μg/ml) for three hours. As a result, a marked percentage of the cells became apoptotic (i.e., PLS-activated cells). For subsequent inhibition of PLS, culture was then treated for 30 minutes with EGTA (1 mM) and BAPTA (20 μM), (i.e., PLS-inhibited culture). Both cultures were treated with DDL (1 μM, 2 minutes) and visualized by a fluorescent microscope (Olympus):
Cultured Jurkat cells (human adult T cell leukemia cells) were grown in suspension in RPMI medium (Beit-Haemek, Israel), supplemented with 10% of fetal calf serum (FCS), 4 mM of L-glutamine, 1 mM of sodium pyruvate, 1 mM CaCl2 and antibiotics (100 units/ml penicilin; 100 μg/ml streptomycin and 12.5 units/ml of nystatin). Prior to induction of apoptosis, medium was replaced with HBS buffer (10 mM HEPES; 140 mM NaCl, 1 mM CaCl). Apoptosis was then triggered by treatment with anti-Fas Ab (0.1 μg/ml; 3 hrs).
Such a procedure culminates in accumulation of a large percentage of apoptotic cells within the culture. Culture was then incubated with DDL at a final concentration of 1 μM for 5 minutes, and then taken immediately for fluorescent microscopy [Olympus fluorescent microscope, model IX70, excitation wavelength of 360 nm, emission at 530 nm].
Modulation of PLS activity was achieved by the calcium depletion-repletion procedure (Momchilova, A., et al., 2000). Inhibition of PLS by Ca^2+-deprivation was performed by cell incubation with the extra-and intracellular chelating agents EGTA (Ethylen glycol-bis (β-aminoethyl ether)-N,N,N′-tetraacetic acid, 1 mM) and BAPTA-AM ([1,2-bis(o-Amino-phenoxy) ethane-N,N,N′,N′-tetraacetic acid tetra-(acetoxymethyl) ester, 20 μM, respectively. Such a procedure eliminates any traces of Ca^2+ possibly present either intra- or extra-cellularly. Subsequent to the induction of apoptosis for three hours, cells were subjected to said PLS inhibition for 30 minutes. Cells were then incubated with DDL for 5 minutes, and subjected to fluorescent microscopy.
For re-activation of PLS, the EGTA/BAPTA-treated cells were now treated with CaCl (1 mM) and calcium ionophore A23187 (2 μM, Calbiochem, Darmstadt, Germany), thus elevating ambient Ca^2+ levels.

SMILES: CN(C)c1cccc2c(S(=O)(=O)NCCCCC(NS(=O)(=O)c3cccc4c(N(C)C)cccc34)C(=O)O)cccc12 (centres unmarked) [DDL]
- DDL binding (fluorescence shift) after reactivation of PLS (HeLa S3 cells; Ca2+ re-administration): restored this shift
- DDL binding (fluorescence shift) after PLS inhibition (HeLa S3 cells; Ca2+-deprivation): almost completely abolished this shift
- DDL binding (fluorescence shift), PLS-activated apoptotic cells (HeLa S3 cells; PLS-activation by the apoptotic process): distinct shift to higher fluorescence levels
- DDL uptake after re-activation of PLS (Jurkat cells; EGTA/BAPTA-treated cells + Ca2+ 1 mM + calcium ionophore A23187 2 μM): re-acquisition of a strong DDL uptake; also recorded: fast, selective and marked uptake
- DDL uptake (fluorescence) by apoptotic cells (Jurkat cells; PLS-activated culture, anti-Fas Ab 0.1 μg/ml 3 h, DDL 1 μM): Some of the cells manifest DDL binding; also recorded: Selective and fast uptake
- Intracellular localisation of DDL fluorescence (Jurkat cells; apoptotic cells): staining the cytoplasm but not the nucleus; also recorded: in the cytoplasm of those cells but not within the nuclei
- DDL uptake (fluorescence intensity) after PLS inhibition (Jurkat cells; apoptotic cells, Ca2+-deprivation: EGTA 1 mM + BAPTA 20 μM, 30 min, DDL 1 μM): marked reduction in the intensity of DDL-binding; also recorded: marked decrease in DDL uptake
- DDL binding by intact cells not undergoing apoptosis (Jurkat cells; same culture, DDL 1 μM): did not bind manifest significant DDL
